Laboratory results taken from PubChem BioAssay AID256 (DTP/NCI, 2004).
Inconclusive results and toxic doses are left out. How the source made its calls: active means survival T/C of 150% or more; inactive means T/C below 125% in these data.

System: CD2F1 mice, L1210 leukemia ip, survival T/C
Assay: NCI In Vivo Anticancer Drug Screen. Data for tumor model L1210 Leukemia (intraperitoneal) in CD2F1 (CDF1) mice
Conditions: higher = longer survival
In short: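 Transplantable tumor in mice; compound-treated vs vehicle-treated groups. Read-out = treated/control ratio of the measured endpoint.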

[1] = endpoint: mean survival time, dose: 100.0 mg/kg/injection, schedule: Q01DX009 (ip), vehicle: other
[2] = endpoint: mean survival time, dose: 200.0 mg/kg/injection, schedule: Q01DX009 (ip), vehicle: other
[3] = endpoint: mean survival time, dose: 100.0 mg/kg/injection, schedule: Q01DX001 (ip), vehicle: saline with Tween-80
[4] = endpoint: mean survival time, dose: 100.0 mg/kg/injection, schedule: Q01DX009 (ip), vehicle: saline with Tween-80
[5] = endpoint: mean survival time, dose: 200.0 mg/kg/injection, schedule: Q01DX001 (ip), vehicle: saline with Tween-80
[6] = endpoint: mean survival time, dose: 200.0 mg/kg/injection, schedule: Q01DX009 (ip), vehicle: saline with Tween-80
[7] = endpoint: mean survival time, dose: 400.0 mg/kg/injection, schedule: Q01DX001 (ip), vehicle: saline with Tween-80
[8] = endpoint: mean survival time, dose: 100.0 mg/kg/injection, schedule: Q04DX003 (ip), vehicle: saline with Tween-80
[9] = endpoint: mean survival time, dose: 200.0 mg/kg/injection, schedule: Q04DX003 (ip), vehicle: saline with Tween-80
[10] = endpoint: mean survival time, dose: 400.0 mg/kg/injection, schedule: Q04DX003 (ip), vehicle: saline with Tween-80
[11] = endpoint: mean survival time, dose: 12.5 mg/kg/injection, schedule: Q01DX009 (ip), vehicle: saline with Tween-80
[12] = endpoint: mean survival time, dose: 25.0 mg/kg/injection, schedule: Q01DX009 (ip), vehicle: saline with Tween-80
[13] = endpoint: mean survival time, dose: 50.0 mg/kg/injection, schedule: Q01DX009 (ip), vehicle: saline
[14] = endpoint: mean survival time, dose: 100.0 mg/kg/injection, schedule: Q01DX001 (ip), vehicle: saline
[15] = endpoint: mean survival time, dose: 100.0 mg/kg/injection, schedule: Q01DX009 (ip), vehicle: saline
[16] = endpoint: mean survival time, dose: 200.0 mg/kg/injection, schedule: Q01DX009 (ip), vehicle: saline

Measured: T/C

NP(=O)(Oc1ccc([N+](=O)[O-])cc1)Oc1ccc([N+](=O)[O-])cc1
inactive: endpoint: mean survival time, dose: 62.5 mg/kg/injection, schedule: Q01DX001 (ip), vehicle: other 97 % of control | endpoint: mean survival time, dose: 125.0 mg/kg/injection, schedule: Q01DX001 (ip), vehicle: other 93 % of control | endpoint: mean survival time, dose: 250.0 mg/kg/injection, schedule: Q01DX001 (ip), vehicle: other 97 % of control | endpoint: mean survival time, dose: 500.0 mg/kg/injection, schedule: Q01DX001 (ip), vehicle: other 86 % of control

O=c1n(-c2ccccc2)c(=O)n2n1CC(c1ccccc1)=N2
inactive: endpoint: mean survival time, dose: 12.5 mg/kg/injection, schedule: Q01DX009 (ip), vehicle: other 97 % of control | endpoint: mean survival time, dose: 25.0 mg/kg/injection, schedule: Q01DX009 (ip), vehicle: other 100 % of control | endpoint: mean survival time, dose: 50.0 mg/kg/injection, schedule: Q01DX009 (ip), vehicle: other 97 % of control | [1] 103 % of control | [2] 96 % of control

COC(=O)/C=N/NS(=O)(=O)c1cccc(N)c1
inactive: endpoint: mean survival time, dose: 25.0 mg/kg/injection, schedule: Q04DX003 (ip), vehicle: water 110 % of control | endpoint: mean survival time, dose: 50.0 mg/kg/injection, schedule: Q04DX003 (ip), vehicle: water 104 % of control | endpoint: mean survival time, dose: 100.0 mg/kg/injection, schedule: Q04DX003 (ip), vehicle: water 108 % of control | endpoint: mean survival time, dose: 200.0 mg/kg/injection, schedule: Q04DX003 (ip), vehicle: water 112 % of control

CCCNc1ncc(C(=O)O)c(=O)[nH]1
inactive: endpoint: mean survival time, dose: 1.56 mg/kg/injection, schedule: Q01DX009 (ip), vehicle: saline sonified 100 % of control | endpoint: mean survival time, dose: 3.1 mg/kg/injection, schedule: Q01DX009 (ip), vehicle: saline sonified 100 % of control | endpoint: mean survival time, dose: 6.25 mg/kg/injection, schedule: Q01DX009 (ip), vehicle: saline sonified 102 % of control

C[N+]1(C)N=C([O-])N(c2cccc3ccccc23)C1=O
inactive: [3] 98 % of control | [4] 103 % of control | [5] 101 % of control | [6] 108 % of control | [7] 98 % of control

COC12CC3C4CCC5CC(O)CCC5(C)C4CCC3(C)C1C(C)C1(CCC(C)CO1)O2 (centres undefined)
inactive: [8] 100 % of control | [9] 96 % of control | [10] 92 % of control

CC1(C)SSC(C)(C)SS1
inactive: [8] 106 % of control | [9] 97 % of control | [10] 103 % of control

CC(C)(C)C1CC[N-]CC1.CC(C)(C)C1CC[N-]CC1.[Cl][Pt+2][Cl]
inactive: endpoint: mean survival time, dose: 75.0 mg/kg/injection, schedule: Q04DX002 (ip), vehicle: saline with Tween-80 95 % of control | endpoint: mean survival time, dose: 150.0 mg/kg/injection, schedule: Q04DX002 (ip), vehicle: saline with Tween-80 98 % of control | endpoint: mean survival time, dose: 300.0 mg/kg/injection, schedule: Q04DX002 (ip), vehicle: saline with Tween-80 107 % of control

[Cl][Sn]([c]1ccccc1)[c]1ccccc1
inactive: endpoint: mean survival time, dose: 6.25 mg/kg/injection, schedule: Q01DX009 (ip), vehicle: saline 97 % of control | [11] 96 % of control | [12] 106 % of control | endpoint: mean survival time, dose: 25.0 mg/kg/injection, schedule: Q01DX009 (ip), vehicle: saline 106 % of control | [13] 94 % of control

O=c1c(O)c(O)c1=O.[NH2-].[NH2-].[NH2-].[NH2-].[NH2-].[Ru+5]
inactive: endpoint: median survival time, dose: 3.12 mg/kg/injection, schedule: Q01DX005 (ip), vehicle: saline 119 % of control | endpoint: median survival time, dose: 3.12 mg/kg/injection, schedule: Q01DX005 (ip), vehicle: suspension in saline 114 % of control | endpoint: median survival time, dose: 6.25 mg/kg/injection, schedule: Q01DX005 (ip), vehicle: saline 122 % of control | endpoint: median survival time, dose: 6.25 mg/kg/injection, schedule: Q01DX005 (ip), vehicle: suspension in saline 114 % of control | endpoint: median survival time, dose: 12.5 mg/kg/injection, schedule: Q01DX005 (ip), vehicle: suspension in saline 109 % of control | endpoint: median survival time, dose: 25.0 mg/kg/injection, schedule: Q01DX005 (ip), vehicle: saline 116 % of control

Cc1c(N=[N+]=[N-])c(NS(=O)(=O)c2ccccc2)c(C)c(N=[N+]=[N-])c1NS(=O)(=O)c1ccccc1
inactive: [8] 96 % of control | [9] 93 % of control | [10] 93 % of control

Cc1ccc(S(=O)(=O)/C=C(\Cl)S(=O)(=O)C(C)(C)C)cc1
inactive: endpoint: mean survival time, dose: 25.0 mg/kg/injection, schedule: Q01DX001 (ip), vehicle: saline with Tween-80 93 % of control | endpoint: mean survival time, dose: 50.0 mg/kg/injection, schedule: Q01DX001 (ip), vehicle: saline with Tween-80 104 % of control

CCCCNC(C)(C)C(SSSC(c1ccc(Cl)cc1)C(C)(C)NCCCC)c1ccc(Cl)cc1 (centres undefined)
inactive: endpoint: mean survival time, dose: 12.0 mg/kg/injection, schedule: Q04DX003 (ip), vehicle: other 97 % of control | endpoint: mean survival time, dose: 25.0 mg/kg/injection, schedule: Q04DX003 (ip), vehicle: other 105 % of control | endpoint: mean survival time, dose: 50.0 mg/kg/injection, schedule: Q04DX003 (ip), vehicle: other 96 % of control

CCOC(=O)/C=C/SCC(N)C(=O)OCC (centres undefined)
inactive: endpoint: mean survival time, dose: 25.0 mg/kg/injection, schedule: Q04DX002 (ip), vehicle: saline 98 % of control | endpoint: mean survival time, dose: 50.0 mg/kg/injection, schedule: Q04DX002 (ip), vehicle: saline 94 % of control | [14] 101 % of control | endpoint: mean survival time, dose: 100.0 mg/kg/injection, schedule: Q04DX002 (ip), vehicle: saline 96 % of control

O=C1CSC(=S)N1/N=C/c1ccc(Cl)c(Cl)c1
inactive: endpoint: mean survival time, dose: 1.56 mg/kg/injection, schedule: Q01DX009 (ip), vehicle: saline with Tween-80 97 % of control | endpoint: mean survival time, dose: 3.13 mg/kg/injection, schedule: Q01DX009 (ip), vehicle: saline with Tween-80 100 % of control | endpoint: mean survival time, dose: 6.25 mg/kg/injection, schedule: Q01DX009 (ip), vehicle: saline with Tween-80 91 % of control | endpoint: mean survival time, dose: 6.25 mg/kg/injection, schedule: Q04DX003 (ip), vehicle: saline with Tween-80 100 % of control

O=C(O)c1ccc(C(=O)O)s1.[NH-]C1CCCCC1[NH-].[Pt+2]
inactive: endpoint: mean survival time, dose: 2.5 mg/kg/injection, schedule: Q04DX003 (ip), vehicle: dextrose 113 % of control | endpoint: mean survival time, dose: 5.0 mg/kg/injection, schedule: Q04DX003 (ip), vehicle: dextrose 118 % of control | endpoint: mean survival time, dose: 20.0 mg/kg/injection, schedule: Q04DX003 (ip), vehicle: dextrose 113 % of control

COCC1OC(OC)C(OC(=O)c2ccccc2)C(OC(=O)c2ccccc2)C1OC (centres undefined)
inactive: [3] 90 % of control | [5] 91 % of control | [7] 90 % of control

COc1ccc2c3csc4ccccc4c-3nc2c1
inactive: [8] 91 % of control

COc1ccc(/C(C#N)=C2\OC(=O)c3ccccc32)cc1OC
inactive: [13] 93 % of control | [15] 94 % of control | [16] 94 % of control | endpoint: mean survival time, dose: 400.0 mg/kg/injection, schedule: Q01DX009 (ip), vehicle: saline 94 % of control

Cc1ccc(S(=O)(=O)N2CCCCC2)cc1
inactive: [13] 91 % of control | [15] 93 % of control | [16] 93 % of control

O=C1C(Cl)=C(Cl)C(=O)C(Cl)=C1Cl
inactive: [12] 101 % of control | endpoint: mean survival time, dose: 50.0 mg/kg/injection, schedule: Q01DX009 (ip), vehicle: saline with Tween-80 102 % of control | [4] 98 % of control

O=C(CC(=Nc1ccccc1)c1ccccc1)c1ccccc1.O=C(CC(=Nc1ccccc1)c1ccccc1)c1ccccc1.[Cu]
inactive: [11] 98 % of control | [12] 93 % of control

Brc1ccccc1C=C1c2ccccc2-c2ccccc21
inactive: [4] 100 % of control | [6] 102 % of control | endpoint: mean survival time, dose: 400.0 mg/kg/injection, schedule: Q01DX009 (ip), vehicle: saline with Tween-80 106 % of control

S=C([S-])N1CCCCC1.S=C([S-])N1CCCCC1.[Zn]
inactive: endpoint: mean survival time, dose: 18.8 mg/kg/injection, schedule: Q01DX009 (ip), vehicle: saline 93 % of control | endpoint: mean survival time, dose: 37.5 mg/kg/injection, schedule: Q01DX009 (ip), vehicle: saline 90 % of control

CC1(C)C=CS1(=O)=O
inactive: endpoint: mean survival time, dose: 50.0 mg/kg/injection, schedule: Q04DX003 (ip), vehicle: saline 98 % of control | [14] 103 % of control | endpoint: mean survival time, dose: 100.0 mg/kg/injection, schedule: Q04DX003 (ip), vehicle: saline 96 % of control | endpoint: mean survival time, dose: 200.0 mg/kg/injection, schedule: Q01DX001 (ip), vehicle: saline 102 % of control | endpoint: mean survival time, dose: 200.0 mg/kg/injection, schedule: Q04DX003 (ip), vehicle: saline 101 % of control

Brc1ccc([Si](c2ccccc2)(c2ccccc2)c2ccc(-c3ccccc3)cc2)cc1
inactive: [1] 102 % of control | [2] 96 % of control | endpoint: mean survival time, dose: 400.0 mg/kg/injection, schedule: Q01DX009 (ip), vehicle: other 96 % of control
